Experimental data: patent US20260015358A1, “BICYCLIC DERIVATIVES, COMPOSITIONS AND USES THEREOF” (Danatlas Pharmaceuticals Co., Ltd., priority 2023, published 2026)

Key:
[1] = target: T1, WRN [UniPro: Q14191 (WRN_HUMAN), N500-C946] (Homo sapiens (Human), UniProt Q14191); experiment: WRN ATPase assay (ADP-Glo); assay type: biochemical; settings: WRN enzymatic activity assay
[2] = target: T1, WRN [UniPro: Q14191 (WRN_HUMAN), N500-C946]; experiment: WRN unwinding assay (FORKF DNA, fluorescence); assay type: biochemical; settings: Table 14

T1 sequence (Q14191 500-946): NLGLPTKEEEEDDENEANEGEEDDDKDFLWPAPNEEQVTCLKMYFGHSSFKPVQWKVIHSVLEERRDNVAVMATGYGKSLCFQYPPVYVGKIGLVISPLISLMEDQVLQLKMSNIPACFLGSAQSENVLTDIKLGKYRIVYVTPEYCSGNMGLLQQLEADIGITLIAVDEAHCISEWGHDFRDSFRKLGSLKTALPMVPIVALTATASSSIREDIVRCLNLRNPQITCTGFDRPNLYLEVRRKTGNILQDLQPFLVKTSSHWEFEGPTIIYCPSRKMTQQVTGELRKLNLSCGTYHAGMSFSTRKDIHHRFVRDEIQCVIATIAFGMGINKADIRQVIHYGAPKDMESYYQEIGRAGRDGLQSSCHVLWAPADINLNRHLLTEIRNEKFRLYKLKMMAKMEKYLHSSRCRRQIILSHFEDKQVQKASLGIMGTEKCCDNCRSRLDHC

IC50 [1] [nM] | IC50 [2] [nM] | SMILES
< 100 | < 100 | CCc1c(N2CCN(C(=O)c3cnc4sc(Br)cc4c3O)CC2)c(=O)n2nc(C3=CCOCC3)nc2n1CC(=O)Nc1ccc(C(F)(F)F)cc1F [Example 297, 2-(6-(4-(2-Bromo-4-hydroxythieno[2,3-b]pyridine-5-carbonyl)piperazin-1-yl)-2-(3,6-dihydro-2H-pyran-4-yl)-5-ethyl-7-oxo-[1,2,4]triazolo[1,5-a]pyrimidin-4(7H)-yl)-N-(2-fluoro-4-(trifluoromethyl)phenyl)acetamide]
100 to 1000 | 100 to 1000 | CCc1c(N2CCN(C(=O)c3[nH]cnc3F)CC2)c(=O)n2nc(C3=CCOCC3)nc2n1CC(=O)Nc1ccc(C(F)(F)F)cc1Cl [Example 299, N-(2-Chloro-4-(trifluoromethyl)phenyl)-2-(2-(3,6-dihydro-2H-pyran-4-yl)-5-ethyl-6-(4-(4-fluoro-1H-imidazole-5-carbonyl)piperazin-1-yl)-7-oxo-[1,2,4]triazolo[1,5-a]pyrimidin-4(7H)-yl)acetamide]
100 to 1000 | 100 to 1000 | CCc1c(N2CCN(C(=O)c3[nH]c4ccncc4c3F)CC2)c(=O)n2nc(C3=CCOCC3)nc2n1CC(=O)Nc1ccc(C(F)(F)F)cc1Cl [Example 300, N-(2-Chloro-4-(trifluoromethyl)phenyl)-2-(2-(3,6-dihydro-2H-pyran-4-yl)-5-ethyl-6-(4-(3-fluoro-1H-pyrrolo[3,2-c]pyridine-2-carbonyl)piperazin-1-yl)-7-oxo-[1,2,4]triazolo[1,5-a]pyrimidin-4(7H)-yl)acetamide]

Second part, the molecule before the results:

SMILES | IC50 [1] [nM] | IC50 [2] [nM]
CCc1c(N2CCN(C(=O)CNC(=O)c3cccc(O)c3F)CC2)c(=O)n2nc(C3=CCOCC3)nc2n1CC(=O)Nc1ccc(C(F)(F)F)cc1Cl [Example 293, N-(2-(4-(4-(2-((2-Chloro-4-(trifluoromethyl)phenyl)amino)-2-oxoethyl)-2-(3,6-dihydro-2H-pyran-4-yl)-5-ethyl-7-oxo-4,7-dihydro-[1,2,4]triazolo[1,5-a]pyrimidin-6-yl)piperazin-1-yl)-2-oxoethyl)-2-fluoro-3-hydroxybenzamide] | < 100 | < 100
CCc1c(N2CCN(C(=O)CNC(=O)c3c(O)cc(C)oc3=O)CC2)c(=O)n2nc(C3=CCOCC3)nc2n1CC(=O)Nc1ccc(C(F)(F)F)cc1Cl [Example 295, N-(2-(4-(4-(2-((2-Chloro-4-(trifluoromethyl)phenyl)amino)-2-oxoethyl)-2-(3,6-dihydro-2H-pyran-4-yl)-5-ethyl-7-oxo-4,7-dihydro-[1,2,4]triazolo[1,5-a]pyrimidin-6-yl)piperazin-1-yl)-2-oxoethyl)-4-hydroxy-6-methyl-2-oxo-2H-pyran-3-carboxamide] | 100 to 1000 | > 1000
CCc1c(N2CCN(C(=O)c3cc4ccnn4cn3)CC2)c(=O)n2nc(C3=CCOCC3)nc2n1CC(=O)Nc1ccc(C(F)(F)F)cc1Cl [Example 296, N-(2-Chloro-4-(trifluoromethyl)phenyl)-2-(2-(3,6-dihydro-2H-pyran-4-yl)-5-ethyl-7-oxo-6-(4-(pyrazolo[1,5-c]pyrimidine-5-carbonyl)piperazin-1-yl)-[1,2,4]triazolo[1,5-a]pyrimidin-4(7H)-yl)acetamide] | 100 to 1000 | 100 to 1000
CCc1c(N2CCN(C(=O)c3cnn4cccc4c3O)CC2)c(=O)n2nc(C3=CCOCC3)nc2n1CC(=O)Nc1sc(C)cc1C [Example 298, 2-(2-(3,6-Dihydro-2H-pyran-4-yl)-5-ethyl-6-(4-(4-hydroxypyrrolo[1,2-b]pyridazine-3-carbonyl)piperazin-1-yl)-7-oxo-[1,2,4]triazolo[1,5-a]pyrimidin-4(7H)-yl)-N-(3,5-dimethylthiophen-2-yl)acetamide] | < 100 | < 100
